Data on five molecules can be found in paper PMC4377985, “Cytotoxic and Antibacterial Angucycline- and Prodigiosin- Analogues from the Deep-Sea Derived Streptomyces sp. SCSIO 11594” (Marine Drugs, 2015).

Series [1] is described as follows: in vitro cytotoxicity, MTT. The format is cell-based. The note with it: human, normal hepatic cell line HL7702, MTT, n = 3, mean ± SD. How it is done:
(§1) The anticancer activity of the related natural products has been described in a number of literatures, and the structure activity relationships of related synthetic natural products have been reported.
(§2) IC50 values were calculated using GraphPad Prism 5 software. All data were obtained in triplicate and are presented as means ± SD.

Series [2] concerns human hepatocarcinoma cancer cell line HepG2. Nature of the series: in vitro cytotoxicity, MTT. In kind it is cell-based. The method, then:
as §1, §2

Series [3] has as its system human breast adenocarcinoma cell line MCF-7. Description: in vitro cytotoxicity, MTT. The format is cell-based. The method, then: as §1, §2
The subject of series [4] is human nasopharyngeal carcinoma cell line CNE2. Nature of the series: in vitro cytotoxicity, MTT. The format is cell-based. How it is done: as §1, §2
In series [5] the test system is human lung cancer cell line A549. Nature of the series: in vitro cytotoxicity, MTT. The format is cell-based. The method, then:
as §1, §2

For series [6], the system named is Micrococcus luteus. Description: antibacterial activity, dilution susceptibility test. In kind it is cell-based. How it is done: (§3) The antibacterial activities of compounds 1–5 were evaluated using MRSE shhs-E1, methicillin-resistant Staphylococcus aureus (MRSA) shhs-A1, Staphylococcus aureus ATCC 29213, Enterococcus faecalis ATCC29212, Escherichia coli ATCC 25922, Micrococcus luteus, and multidrug resistant Pseudomonas aeruginosa.
(§4) The antibacterial activities of compounds 1–5 were assessed using seven strains of pathogenic bacteria including MRSE shhs-E1, MRSA shhs-A1, Staphylococcus aureus ATCC 29213, Enterococcus faecalis ATCC29212, Escherichia coli ATCC 25922, Micrococcus luteus, and multidrug resistant Pseudomonas aeruginosa. Dilution antimicrobial susceptibility tests for aerobic bacteria were carried out as previously reported.

Series [7] deals with Enterococcus faecalis ATCC29212. The series is described as above. The format is cell-based. How it is done:
as §3, §4

Series [8] has as its system multidrug resistant Pseudomonas aeruginosa. The description is as above. In kind it is cell-based. The method, then: as §3, §4
The test system of series [9] is Escherichia coli ATCC 25922. Described as above. In kind it is cell-based. The note with it: ATCC25922. The method, then:
as §3, §4

In series [10] the test system is Staphylococcus aureus ATCC 29213. Described as above. The format is cell-based. The settings on record: ATCC29213. The method, then: as §3, §4
Series [11] has as its system MRSA shhs-A1. Described as above. In kind it is cell-based, methicillin-resistant Staphylococcus aureus. The settings on record: Staphylococcus aureus. The method, then:
as §3, §4

Series [12] relates to MRSE shhs-E1. The description is as above. The format is cell-based, methicillin-resistant Staphylococcus epidermidis. The note with it: Staphylococcus epidermidis. The method, then:
as §3, §4

Series [13] deals with four human cancer cell lines A549, CNE2, HepG2, MCF-7. Description: in vitro cytotoxicity, MTT, panel of four cancer cell lines. The format is cell-based. The settings on record: for estimated therapeutic ratio (TR): comparison of tumor cell-derived IC50 values with HL7702 IC50; for fold more cytotoxic/potent than the positive control cisplatin: relative to cisplatin, cancer cell lines. The method, then: Compounds 1–5 were tested for potential in vitro cytotoxicity against human lung cancer cell line A549, human nasopharyngeal carcinoma cell line CNE2, human breast adenocarcinoma cell line MCF-7, human hepatocarcinoma cancer cell line HepG2, and the normal hepatic cell line HL7702. […] The anticancer activity of the related natural products has been described in a number of literatures, and the structure activity relationships of related synthetic natural products have been reported.
Compounds 1–5 were evaluated for cytotoxic activity using four human cancer cell lines, A549, CNE2, HepG2, MCF-7, one normal hepatic cell line HL7702 and previously reported MTT methodologies. IC50 values were calculated using GraphPad Prism 5 software. All data were obtained in triplicate and are presented as means ± SD. Cisplatin was used as a positive control.

Where [14] appears, read: HepG2, MTT, n = 3, mean ± SD, read-out: in vitro cytotoxicity IC50, HepG2.
The mark [15] stands for this setting: MCF7, MCF-7, MTT, n = 3, mean ± SD, read-out: in vitro cytotoxicity IC50, MCF-7.
Where [16] appears, read: CNE-2, CNE2, MTT, n = 3, mean ± SD, read-out: in vitro cytotoxicity IC50, CNE2.
Setting [17] is: A549, MTT, n = 3, mean ± SD, read-out: in vitro cytotoxicity IC50, A549.

In brackets after ≈: the same amount, converted by molar mass. Where two headings read alike, the source gives them in different places.

A word on the IC50: it is the concentration at which inhibition is half-maximal. As usually defined, the MIC is the smallest concentration in the dilution series that meets the test's criterion for growth inhibition. Take `CCCCCCCCCCCC1=N/C(=C\c2[nH]c(-c3ccc[nH]3)cc2OC)C=C1` [Compound 4, undecylprodigiosin]: the half-maximal inhibitory concentration (IC50) was 12.47 ± 0.09 µM in series [1] (HL7702 normal hepatic cells); 4.67 ± 0.09 µM in series [2] (setting [14]); 1.11 ± 0.07 µM in [3] (setting [15]); 0.28 ± 0.02 µM in [4] (setting [16]); 0.85 ± 0.01 µM in series [5] (setting [17]). Besides, the minimal inhibitory concentration (MIC) in series [6], in series [7], in series [8], in series [9], in series [10] and in series [11] was > 64 µg/mL each time. For the same molecule, in series [12] (MRSE), the minimum inhibitory concentration (MIC) was > 64 µg/mL. Moreover, the “estimated therapeutic ratio (TR)” value in series [13] is listed as 3–45. The “fold more cytotoxic/potent than the positive control cisplatin” value in series [13] was 1–10 fold.
On to `Cc1cc(O)c2c3c(ccc2c1)C(=O)c1c(ccc(C2CC4OC5CC(=O)C(C)OC5OC4C(C)O2)c1O)C3=O` (stereo not shown) [Compound 2, marangucycline B], for which the half-inhibitory concentration (IC50) is 3.67 ± 0.07 µM in [1] (HL7702 normal hepatic cells); 0.43 ± 0.05 µM in series [2] (setting [14]); 0.24 ± 0.003 µM in series [3] (setting [15]); 0.56 ± 0.02 µM in [4] (setting [16]); 0.45 ± 0.03 µM in series [5] (setting [17]); 0.24 to 0.56 µM in series [13] (Homo sapiens, four cancer cell lines, read-out: IC50 values against cancer cell lines (range over the panel)). The “estimated therapeutic ratio (TR)” value in series [13] is reported as 7–15. The “fold more cytotoxic/potent than the positive control cisplatin” value in series [13] was 10–20 fold.
Consider `Cc1cc(O)c2c3c(ccc2c1)C(=O)c1c(ccc([C@H]2C[C@@H](O)[C@H](O[C@H]4CC[C@@H](O)[C@H](C)O4)[C@@H](C)O2)c1O)C3=O` [Compound 1, marangucycline A], for which the half-inhibitory concentration (IC50) in series [1] (HL7702 normal hepatic cells), in series [2] (setting [14]), in series [3] (setting [15]), in [4] (setting [16]) and in [5] (setting [17]) was > 50 µM throughout.
For the molecule `CCC1CCCCCCCCC2=N/C(=C\c3[nH]c(-c4ccc[nH]4)cc3OC)C1=C2` (stereo not shown) [Compound 5, metacycloprodigiosin], the IC50 in series [1] is > 50 µM; in series [2] (HepG2, read-out: in vitro cytotoxicity IC50, HepG2), > 50 µM; in series [3] (MCF7, read-out: in vitro cytotoxicity IC50, MCF-7) it was > 50 µM; in series [4] (CNE-2, read-out: in vitro cytotoxicity IC50, CNE2), > 50 µM; in series [5] (A549, read-out: in vitro cytotoxicity IC50, A549), > 50 µM. Besides, the MIC in series [6], in [7], in [8], in series [9], in [10] and in series [11] was > 64 µg/mL in each case. For the same molecule, the MIC in series [12] (MRSE) is > 64 µg/mL.
Regarding `Cc1cc(O)c2c3c(ccc2c1)C(=O)c1c(ccc([C@H]2C[C@@H](O)[C@H](O)[C@@H](C)O2)c1O)C3=O` [Compound 3, dehydroxyaquayamycin], the IC50 in series [1] (HL7702 normal hepatic cells) was determined as 49.34 ± 0.17 µM; in series [2] (setting [14]), 18.81 ± 0.12 µM; in [3] (setting [15]), 23.65 ± 0.09 µM; in series [4] (setting [16]), 22.27 ± 0.07 µM; in series [5] (setting [17]), 16.4 ± 0.19 µM. For the same molecule, in series [12] (MRSE shhs-E1, read-out: MIC), the MIC amounted to 16 µg/mL (≈ 36.8 µM). In addition, the “estimated therapeutic ratio (TR)” value in [13] is reported as 2–3.
